Numbers after ± are expanded uncertainties.
Assay: wn = mass fraction of the nth substance listed
Settings: 101.33 kPa, Liquid

O=S(=O)(O)O [sulfuric acid] + O
Settings	mass density, w1 = 0.1 [kg/m3]	mass density, w1 = 0.2 [kg/m3]	mass density, w1 = 0.3 [kg/m3]	viscosity, w1 = 0.1 [mPa·s]	viscosity, w1 = 0.2 [mPa·s]	viscosity, w1 = 0.3 [mPa·s]
293.15 K	1066.2 ± 1.2	1139.5 ± 1.3	1218.3 ± 1.4	1.231 ± 0.028	1.55 ± 0.035	2.009 ± 0.044
303.15 K	1061.9 ± 1.2	1133.3 ± 1.3	1211.7 ± 1.4	0.9804 ± 0.023	1.229 ± 0.028	1.601 ± 0.036
313.15 K	1056.8 ± 1.3	1126.9 ± 1.3	1204.3 ± 1.4	0.7896 ± 0.018	0.9887 ± 0.023	1.306 ± 0.029
323.15 K	1051.8 ± 1.3	1121.1 ± 1.3	1198 ± 2	0.661 ± 0.016	0.8311 ± 0.019	1.1 ± 0.025
333.15 K	1046.3 ± 1.3	1115.3 ± 1.4	1190.7 ± 1.4	0.5598 ± 0.014	0.7105 ± 0.017	0.9426 ± 0.022
343.15 K	1039.6 ± 1.3	1108.8 ± 1.4	1184.2 ± 1.5	0.4902 ± 0.012	0.6409 ± 0.015	0.8467 ± 0.02
